Data on ten molecules can be found in ChEMBL document CHEMBL4699565, “Computational modeling and target synthesis of monomethoxy-substituted o-diphenylisoxazoles with unexpectedly high antimitotic microtubule destabilizing activity” (Bioorg Med Chem Lett, 2020).

Where only a bound is given, the exact number is not on record here.

Test [1] has as its system Paracentrotus lividus. Briefly: Antimitotic activity against sea urchin embryo assessed as cleavage alteration measured 2.5 to 6 hrs post-fertilization by light microscopy analysis. It is filed as functional.
Test [2] has as its system Paracentrotus lividus. Briefly: Antimitotic activity against sea urchin embryo assessed as cleavage arrest measured 2.5 to 6 hrs post-fertilization by light microscopy analysis. It is filed as functional. As to conditions: time hrs 2.5-6.
In test [3] the test system is Paracentrotus lividus. Nature of the test: Antimitotic activity against sea urchin embryo assessed as embryo spinning measured 2.5 to 6 hrs post-fertilization observed after 15 min to 20 hrs of treatment by light microscopy analysis. The class given is functional. As to conditions: time hrs 0.25-20.
Test [4] deals with Tubulin (Homo sapiens) (UniProt P68371+Q9H4B7+P0DPH7+P68366+Q13509+Q71U36+P04350+Q3ZCM7+P07437+P68363+Q9BQE3+Q6PEY2+Q13885+Q9BVA1+Q9BUF5). Briefly: Binding affinity to tubulin (unknown origin) assessed as change in gibbs free energy. It is filed as protein-complex assay.
Test [5] has as its system K562. Briefly: Cytotoxicity against human K562 cells. The class given is functional, cell-based.
For test [6], the system named is Panel NCI-60 (60 carcinoma cell lines). Briefly: Cytotoxicity against human NCI60 cells. The class given is functional.
The subject of test [7] is MDA-MB-435. Briefly: Cytotoxicity against human MDA MB 435 cells. The class given is functional.
In test [8] the test system is Paracentrotus lividus. Nature of the test: Antimitotic activity against sea urchin embryo assessed as cleavage arrest by phase microscopy analysis. It is filed as functional.

Turning to `COc1ccc(/C=C\c2cc(OC)c(OC)c(OC)c2)cc1O` [COMBRETASTATIN A4], the EC turned out to be 0.002 µM in test [1], 0.01 µM in test [2] and 0.05 µM in test [3]. For the same molecule, the deltaG in test [4] is -11.9 kcal/mol. Also, the IC50 in test [5] turned out to be 1 nM.
As to `COc1ccc(-c2cnoc2-c2ccccc2)cc1`, the EC in test [1] was found to be 0.002 µM; in test [2] it was 0.02 µM; in test [3] it was 0.1 µM. In addition, the deltaG in test [4] is -11.9 kcal/mol.
Regarding `COc1ccc(-c2conc2-c2ccccc2)cc1`, the EC worked out at 0.005 µM in test [1], 0.05 µM in test [2] and 0.1 µM in test [3]. Besides, the deltaG in test [4] was -11.3 kcal/mol. In addition, the values for the concentration for 50% growth inhibition (GI50) in test [6] and in test [7] were 457 nM and 26 nM, respectively. In addition, in test [5], 47 nM corresponded to half-maximal inhibition (IC50).
On to `COc1cc2c(c(OC)c1OC)-c1cc3c(cc1[C@H](OC(C)=O)[C@H]1COC(=O)[C@@H]1C2)OCO3` [(-)-STEGANACIN], for which, in test [8], the EC came out at 0.3 µM.
For `COc1cc(-c2cc(-c3cccc(O)c3)cnc2N)cc(OC)c1OC`, the EC in test [1] was determined as 0.1 µM; in test [2], 1 µM; in test [3] it was 1 µM.
As for `COc1ccc(-c2nocc2-c2ccccc2)cc1`, the EC in test [1] was found to be 0.2 µM; in test [2], 2 µM; in test [3], 2 µM. In addition, in test [4], the deltaG is -9.15 kcal/mol.
Turning to `COc1ccc(-c2nocc2-c2cc(OC)c(OC)c(OC)c2)cc1`, the deltaG in test [4] is -10.9 kcal/mol.
Take `COc1ccc(-c2oncc2-c2ccccc2)cc1`: the EC in test [1] was 0.2 µM; in test [2], 2 µM; in test [3], over 5 µM. Besides, the deltaG in test [4] was -9.15 kcal/mol.
As to `COc1cc([C@@H]2c3cc4c(cc3[C@H](O)[C@H]3COC(=O)[C@H]23)OCO4)cc(OC)c1OC` [PODOFILOX], the figures for the EC in test [1], in test [2] and in test [3] were 0.02 µM, 0.05 µM and 0.5 µM, respectively.
For `COc1cc2c(c(OC)c1OC)-c1ccc(OC)c(=O)cc1[C@@H](NC(C)=O)CC2` [COLCHICINE], the values for the EC in test [1], in test [2] and in test [3] were 0.05 µM, 0.1 µM and 0.05 µM, respectively.

What is called IC50 is the concentration that inhibits the measured activity by half. A low value points to greater potency in that assay. What is called GI50 is the concentration that inhibits growth by half. A lower GI50 goes with greater sensitivity of the cells.
